According to patent publication US20260144805A1, “CANNABIDIOL COMPOSITIONS FOR USE IN THE TREATMENT OF NEURODEGENERATIVE AND NEUROLOGICAL DISORDERS” (JAZZ PHARMACEUTICALS RESEARCH UK LIMITED, priority 2022, published 2026):

Experiments:
rTg4510 mice = assay: Open Field (OF) test, locomotor activity in rTg4510 mouse model of Alzheimer's Disease (Example 2; DS = DS-C); format: in vivo; settings: Week 31; for Locomotor activity totals, % vs Wild-type / Locomotor activity totals, % vs rTg4510 / Locomotor activity totals, Mean: Risperidone 0.125 mg/kg i.p.
Protocol: The aim of this study was to evaluate the efficacy of the present drug substance to modulate the agitation-like behaviours in the rTg4510 regulatable mouse model of Alzheimer's Disease (AD). Animals were tested in a behavioural assay, the Open Field (OF) test to measure locomotor activity (LMA). Activity was first assessed at a 21-week-old baseline to determine whether a hyperactive phenotype (to be used as a proxy for agitation) had developed and was further assessed at 2 subsequent ages in acute and chronic efficacy phases.
Ninety male rTg4510 (CC) mice and 15 wild-type (WW) (Tg(Camk2a-tTA)1Mmay Fgf14^Tg(tetO-MAPT*P301L)4510Kha/J, Jax strain #024854, licensed from the Mayo Clinic, USA) were split into 2 cohorts, 4 weeks apart in age; cohort 1 contained 53 mice (8 WW and 45 CC) and cohort 2 contained 52 mice (7 WW and 45 CC). Relative humidity was 55±15% throughout. Mice were housed in individually ventilated cages on a 12 h/12 h light/dark cycle (lights on at 07.00 h; illumination by red light during the dark phase), at an ambient temperature of 24±4° C. with free access to standard rodent maintenance diet and filtered water. Animals were allowed to acclimatise to the above conditions for 7-10 days prior to the study start. All housing groupings were preserved until the mice were approximately 5 months old, at which point they were singly housed.
Doxycycline administration: a subset of animals in cohort 2 (n=15) was administered 2× daily oral bolus doses of doxycycline hyclate (10 mg/kg p.o. in 5% glucose, Sigma Aldrich) at 13 weeks of age, followed by continuous exposure to normal lab chow containing 200 ppm doxycycline (Envigo Teklad 2018 TD.00502 no colourants, irradiated and vacuum-packed). All other animals received Envigo Teklad 2018 diet. All diet was provided ad libitum.
Following this regime, animals were evaluated in Open Field (OF) test, before being deeply anaesthetised at the end of the behavioural testing prior to biofluid sampling and tissue harvesting.
Specifically, the material was solubilised by the addition of 50 μL of 10% glacial acetic acid and making up to volume with 0.9% saline (Aquapharm, Animal Care, York, UK, Lot 21030311).
Drug Substance (DS): (i.e., DS-C, See Table B in Example 1) Dosing volume was 10 mL/kg and DS was formulated at the 150 mg/kg dose in a vehicle of ethanol: Kolliphor HS15: 0.9% saline (1:12:87, w/w/v) which were stored at room temperature and added at approximately 60° C. to form solutions which were subsequently stable at room temperature. All dosing formulations were protected from light whenever possible. Dosing solutions were made fresh on the day of dosing, with lower dose formulations being prepared by dilution from the 150 mg/kg dosing solution at room temperature.
Locomotor activity was assessed by OF test in the light phase of the light-dark cycle at weeks 21, 26 and 31. An automated beam break apparatus (40 cages) was used for the assessment of locomotor activity in rats and mice. Each cage had 4 beams; 1 ‘y’ and 3 ‘x’ which triggered a signal through capacitors when the beam was broken. Signals were collected by data loggers and processed accordingly. All animals were placed in the apparatus and spontaneous activity was assessed for a four-hour period between 0900 and 1300. Animals were then removed from the apparatus and returned to their home cages. LMA assessment was split over 2 consecutive days at each time point.
For locomotor data, a log (x+1) transformation was used. For weeks 21 & 26, means and SEMs were calculated from the transformed data. Analysis was by Friedman's two-way nonparametric ANOVA with treatment and test day as factors to compare each group to the WW animals, and (where appropriate) Doxycycline with the untreated rTg4510 group. For week 30, data excluding the WW and Doxycycline groups for each time period were analysed by robust regression model using M estimation, Huber weighting, using the default parameter c=1.345. […]

[1] = tested on: valproic acid-induced autism spectrum disorder (ASD) mouse model; assay: Valproic acid-induced ASD model, social behavior (Example 6, Table P); format: in vivo; parameters: key: +: improvement; Ø: no change; −: not tested; settings: 0.125 mg/kg I.P.
Description: The main objective of the following study was to assess the effect of the drug substance (DS) of Example 1 in ameliorating autism-like behavior in valproic acid-induced autism spectrum disorder (ASD) mouse model (FIGS. 19A-B).

Cc1nc2n(c(=O)c1CCN1CCC(c3noc4cc(F)ccc34)CC1)CCCC2 [Risperidone]
Locomotor activity totals, % vs Wild-type (rTg4510 mice; 0-30 minutes): 95.7%
Locomotor activity totals, % vs rTg4510 (rTg4510 mice; 0-30 minutes): 40.1%
Locomotor activity totals, Mean (rTg4510 mice; 0-30 minutes): 525.99
Locomotor activity totals, % vs Wild-type (rTg4510 mice; 0-60 minutes): 135.0%
Locomotor activity totals, % vs rTg4510 (rTg4510 mice; 0-60 minutes): 49.4%
Locomotor activity totals, Mean (rTg4510 mice; 0-60 minutes): 1313.59
hyperlocomotion vs rTg4510(vehicle) (rTg4510 mice; 0-60 minutes, risperidone 0.125 mg/kg/d): significantly reversed
Locomotor activity totals, % vs Wild-type (rTg4510 mice; 30-60 minutes): 183.6%
Locomotor activity totals, % vs rTg4510 (rTg4510 mice; 30-60 minutes): 46.9%
Locomotor activity totals, Mean (rTg4510 mice; 30-60 minutes): 641.92
Locomotor activity totals, % vs Wild-type (rTg4510 mice; 60-90 minutes): 104.9%
Locomotor activity totals, % vs rTg4510 (rTg4510 mice; 60-90 minutes): 24.1%
Locomotor activity totals, Mean (rTg4510 mice; 60-90 minutes): 140.56
Locomotor activity totals, % vs Wild-type (rTg4510 mice; 60-120 minutes): 134.8%
Locomotor activity totals, % vs rTg4510 (rTg4510 mice; 60-120 minutes): 39.8%
Locomotor activity totals, Mean (rTg4510 mice; 60-120 minutes): 384.49
Locomotor activity totals, % vs Wild-type (rTg4510 mice; 90-120 minutes): 241.3%
Locomotor activity totals, % vs rTg4510 (rTg4510 mice; 90-120 minutes): 79.0%
Locomotor activity totals, Mean (rTg4510 mice; 90-120 minutes): 132.22
Locomotor activity totals, % vs Wild-type (rTg4510 mice; 120-150 minutes): 222.8%
Locomotor activity totals, % vs rTg4510 (rTg4510 mice; 120-150 minutes): 130.5%
Locomotor activity totals, Mean (rTg4510 mice; 120-150 minutes): 210.31
Locomotor activity totals, % vs Wild-type (rTg4510 mice; 150-180 minutes): 399.5%
Locomotor activity totals, % vs rTg4510 (rTg4510 mice; 150-180 minutes): 103.1%
Locomotor activity totals, Mean (rTg4510 mice; 150-180 minutes): 82.39
Locomotor activity totals, % vs Wild-type (rTg4510 mice; 180-210 minutes): 136.3%
Locomotor activity totals, % vs rTg4510 (rTg4510 mice; 180-210 minutes): 103.4%
Locomotor activity totals, Mean (rTg4510 mice; 180-210 minutes): 27.84
Locomotor activity totals, % vs Wild-type (rTg4510 mice; 210-240 minutes): 37.5%
Locomotor activity totals, % vs rTg4510 (rTg4510 mice; 210-240 minutes): 56.3%
Locomotor activity totals, Mean (rTg4510 mice; 210-240 minutes): 6.99
Adult active social behavior ([1]; control beside DS): Ø
Juvenile play behavior ([1]; control beside DS): Ø
Adult active social behavior ([1]; control beside sCBD): +
Juvenile play behavior ([1]; control beside sCBD): +
Adult active social behavior ([1]; control beside sCBD-2): Ø
Juvenile play behavior ([1]; control beside sCBD-2): Ø
